Data taken from patent US5147876A, “2,6-di,2,4,6-, 2,5,6-tri and 2,4,5,6-tetra-substituted pyrimidines, their pharmaceutically acceptable salts, pharmaceutical compositions containing same and their use in the treatment of neurological diseases” (Mitsui Petrochemical Industries, Ltd., priority 1988, dated 1992).

How the values were obtained:
[1] = system: neuro-2a (mouse neuroblastoma cells); test: Action on neuro-2a: proportion of cells containing outgrown neurites; type: cell-based; details: mean ± S.D.
Outline: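 Mouse neuro-2a cells at 1,000 cells/well in DMEM with 10% FCS were cultured one day at 37 °C, 5% CO2, then glutaraldehyde-fixed and methylene-blue-stained. The proportion of cells bearing a neurite at least twice the cell's long diameter was counted over >200 cells; up to 6 concentrations, triplicate runs.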

[2] = system: NS-20Y (mouse neuroblastoma cells); test: Activity on NS-20Y cells: appearance of neurites; type: cell-based
Protocol: The effects of the compounds of this invention on neuroblastoma cells were examined by the following method.
Mouse neuro 2a cells in the logarithmic growth period in the Dulbecco's modified Eagle's medium DMEM, containing 100 units/ml of penicillin G sodium and 100 micrograms/ml of streptomycin sulfate]containing 10 % of FCS were seeded in a 48-well plate so that the number of cells was 1,000 cells/well, and cultured for one day in 0.25 ml of the culture fluid in each well in an incubator containing 5 % of carbon dioxide gas in air at 37° C. Then, a 4 % aqueous glutaraldehyde solution in the same amount as a medium (0.25 ml) was added, and the culture fluid was left to stand at room temperature for 2 hours to fix the cells. After washing with water, a 0.05 % aqueous solution of methylene blue was added to stain the cells Under a microscope, the number of cells containing outgrown neurites (cells having at least one neurite with a length of at least two times as large as the long diameter of the cell) was counted visually, and the proportion of these cells in the entire cells was calculated. The well was observed over 5 or more visual fields (at least 2 % of the entire surface area of the well) continuous to the left and right from a mark put at the center of the well, and more than 200 cells was counted. One drug compound was used in 6 different concentrations at most, and three runs were conducted for each concentrations.
Mouse neuroblastoma cells NS-20Y were similarly cultured in a dish coated with polyornithine, and the effects of the compounds were examined.

[3] = Acute toxicity on mice; type: in vivo; details: mouse, in vivo, ip, 24 hours after administration; read-out: Estimated LD50
Protocol: The acute toxicity of the compounds of the invention was examined by the following method.
Male ddy-strain 5-week old mice, 4-6- per group, were used as experimental animals. Each of the compounds was intraperitoneally (i.p.), and the toxicity of the compound was assessed 24 hours after the administration.

Row | SMILES | Number of cells having neurites with a length at least two times the diameter of each cell/total number of cells ([1]; 0.1 mM) [%] | Number of cells having neurites with a length at least two times the diameter of each cell/total number of cells ([1]; 0.3 mM) [%] | Number of cells in which neurites appeared/total number of cells ([2]; 24 hours, 0.1 mM) | Number of cells in which neurites appeared/total number of cells ([2]; 48 hours, 0.025 mM) | Number of cells in which neurites appeared/total number of cells ([2]; 48 hours, 0.05 mM) | Number of cells in which neurites appeared/total number of cells ([2]; 48 hours, 0.1 mM) | LD50 at 24 h [3] [mg/kg] | Number of cells having neurites with a length at least two times the diameter of each cell/total number of cells ([1]; 0.03 mM) [%] | Number of cells having neurites with a length at least two times the diameter of each cell/total number of cells ([1]; 1 mM) [%]
1 | CC1CCN(c2nccc(N(C)C(=O)c3ccccc3)n2)CC1 [Compound 144] | 13.7 ± 7.8 | 33.8 ± 8.6 | 37/50 | 6/50 | 8/52 | 31/50 | > 1000 | – | –
2 | CN(Cc1ccccc1)c1ccnc(N2CCC(c3ccccc3)CC2)n1 [Compound 2278] | 12.5 ± 1.3 | – | – | – | – | – | 500 to 1000 | 13.9 ± 6.3 | –
3 | CC1CCCN(c2nccc(N(C)C(=O)c3ccccc3)n2)C1 (stereo not drawn) [Compound 138] | 12.6 ± 4.1 | – | – | – | – | – | > 1000 | 6.3 ± 1.8 | –
4 | CC(=O)N(C)c1ccnc(N2CCc3ccccc3C2)n1 [Compound 312] | 9.7 ± 0.9 | – | – | – | – | – | > 1000 | 4.5 ± 0.4 | –
5 | CN(C(=O)Nc1ccccc1)c1ccnc(N2CCC(c3ccccc3)CC2)n1 [Compound 2218] | 11.4 ± 6.1 | – | – | – | – | – | 500 to 1000 | 9.7 ± 1.8 | –
6 | CC1CCCCN1c1nccc(N(C)C(=O)c2ccccc2)n1 (stereo not drawn) [Compound 154] | 16.2 ± 2.1 | – | – | – | – | – | > 1000 | 5.2 ± 1.5 | –
7 | CN(C(=O)N1CCOCC1)c1ccnc(N2CCC(c3ccccc3)CC2)n1 [Compound 2326] | 8.3 ± 2.6 | – | – | – | – | – | 500 to 1000 | 4.6 ± 1.4 | –
8 | CN(C(=O)c1ccc(N)cc1)c1ccnc(N2CCC(c3ccccc3)CC2)n1 [Compound 2182] | 2.7 ± 0.9 | – | – | – | – | – | 500 to 1000 | 8.0 ± 3.2 | –
9 | Cc1cnc(N2CCCCC2)nc1N(C)C(=O)c1ccccc1 [Compound 408] | 9.1 ± 1.8 | 9.6 ± 3.9 | – | – | – | – | 500 to 1000 | – | –
10 | CN(C(=O)c1ccccc1)c1ccnc(N2CCC(C(=O)c3ccc(Cl)cc3)CC2)n1 [Compound 2310] | 8.3 ± 1.8 | 12.1 ± 3.6 | – | – | – | – | 500 to 1000 | – | –
11 | CON(C(=O)c1ccccc1)c1ccnc(N2CCC(c3ccccc3)CC2)n1 [Compound 2318] | 35.1 ± 1.3 | 18.6 ± 5.2 | – | – | – | – | 500 to 1000 | 7.7 ± 1.4 | 8.8 ± 1.3
